Laboratory results published in US10888561B2, “CGRP receptor antagonists” (Heptares Therapeutics Limited, priority 2015, dated 2021).

Legend:
[1] = Thermodynamic solubility profiling; type: physicochemical; conditions: PBS buffer pH 7.4, 24 h at rt
Experimental: Thermodynamic solubility profiling. A 50 mM DMSO stock solution of test compound was prepared, and from this, a working solution of 1 mM was prepared by dilution with DMSO. The UV absorbance of working solution was scanned from 220 nm to 1000 nm to identify the wavelength maxima of test compound. The 1 mM working solution was then serially diluted in DMSO to different concentrations to determine linearity/calibration curve. […] The resulting solution was then kept on a RotoSpin shaker at 50 rpm for 24 h at rt before the solution was filtered using 0.45 micron PVDF injector filters in order to remove the insoluble fraction of the compound. Subsequently, 150 uL of the filtrate is taken for quantification using a UV spectrophotometer, acquiring the optical density of standard solutions and test compound at the same wavelength maxima. From the optical density of test compound the thermodynamic solubility is calculated using the linearity/calibration curve and expressed as micromolar (μM). Solubility profiles of certain compounds of the invention are detailed in Table 7.

[2] = target: CGRP receptor (Homo sapiens (Human), UniProt O60894+Q16602); conditions: literature; cited from earlier work
[3] = test system: migraine; conditions: humans, at 24 h after intravenous infusion of a 2.5 mg dose; cited from earlier work

CGRP receptor, sequence (Q16602 23-461): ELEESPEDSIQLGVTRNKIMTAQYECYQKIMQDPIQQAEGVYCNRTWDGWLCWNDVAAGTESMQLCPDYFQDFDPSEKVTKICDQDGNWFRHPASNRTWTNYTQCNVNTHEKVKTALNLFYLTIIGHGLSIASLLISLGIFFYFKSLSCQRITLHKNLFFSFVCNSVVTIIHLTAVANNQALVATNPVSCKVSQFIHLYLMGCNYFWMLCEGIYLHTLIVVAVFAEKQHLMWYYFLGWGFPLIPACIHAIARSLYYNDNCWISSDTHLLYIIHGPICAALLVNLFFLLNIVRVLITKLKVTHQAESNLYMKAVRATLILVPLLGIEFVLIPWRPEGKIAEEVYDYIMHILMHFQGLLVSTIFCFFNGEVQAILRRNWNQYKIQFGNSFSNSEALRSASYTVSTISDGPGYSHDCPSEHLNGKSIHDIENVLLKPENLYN
CGRP receptor, sequence (O60894 27-148): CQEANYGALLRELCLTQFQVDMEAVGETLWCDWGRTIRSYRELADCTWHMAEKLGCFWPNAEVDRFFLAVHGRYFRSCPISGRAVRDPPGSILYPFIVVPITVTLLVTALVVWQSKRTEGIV

Structure (SMILES) | Thermodynamic solubility (μM) pH 7.4 [1] | kinetics at the CGRP receptor [2] | headache-free rate [3]
Cc1cc(C[C@@H](NC(=O)N2CCC(N3Cc4ccccc4NC3=O)CC2)C(=O)N[C@@H](CC2CCNCC2)C(=O)N2CCN(c3ccncc3)CC2)cc2cn[nH]c12 [Example 10, N-[(2R)-3-(7-methyl-1H-indazol-5-yl)-1-oxo-1-({(2S) (2S)-1-oxo-3-(piperidin-4-yl)-1-[4-(pyridin-4-yl)piperazin-1-yl]propan-2-yl}amino)propan-2-yl]-4-(2-oxo-1,4-dihydroquinazolin-3(2H)-yl)piperidine-1-carboxamide] | 1205 μM | – | –
O=C(CN1C(=O)C2(CCCC2)NC[C@H]1c1cc(F)cc(F)c1)Nc1ccc2c(c1)C[C@@]1(C2)C(=O)Nc2ncccc21 [MK-3207] | – | relatively slow dissociation | –
NCCCC[C@H](NC(=O)[C@@H](Cc1cc(Br)c(O)c(Br)c1)NC(=O)N1CCC(N2Cc3ccccc3NC2=O)CC1)C(=O)N1CCN(c2ccncc2)CC1 [olcegepant] | – | slow kinetics | 47%
